Measured values: patent US20240382600A1, “BIFUNCTIONAL DEGRADERS COMPRISING A TEAD BINDER” (Novartis AG, priority 2021, published 2024)

How the values were obtained:
[1] = target: Avi-humanTEAD4^217-434 / Cy5 labeled humanYAP^60-100 (Homo sapiens (Human), UniProt Q15561); assay: In-vitro biochemical TR-FRET assay (TEAD4/YAP); format: binding; details: 1 h at room temperature
[2] = test system: YAP-dependent transcription in NCI-H2052 Tet-On shYAP_2371 pLenti6 MCAT_Luc cells; assay: YAP reporter gene activity assay (MCAT-Luc), NCI-H2052; format: cell-based; details: Homo sapiens, 24 hrs
[3] = test system: YAP-dependent transcription in SF268-MCAT_Luc_dox-i-shYAPLevy (Clone 13) cells; assay: YAP reporter gene activity assay (MCAT-Luc), SF268; format: cell-based; details: Homo sapiens, SF-268; SF268 MCAT_Luc, 24 hrs
[4] = test system: MKN-45/Ubc-luc cells (unspecific inhibition of luciferase expression or activity); assay: Reporter gene assay specificity control (Ubc-Luc), MKN-45; format: cell-based; details: Homo sapiens; MKN-45/Ubc-luc specificity control, 24 hrs
How it was run: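 MKN-45 cells stably carrying a ubiquitin C promoter–firefly luciferase construct, treated the day after seeding with eleven 2-fold compound dilutions (0.1% DMSO final) for 24 hrs at 37° C. Luminescence read 5 min after Steady Glo addition; cell-free background subtracted, as a control for nonspecific luciferase inhibition.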

[5] = test system: NCI-H2052 Tet-On shYAP_2371 pLenti6 MCAT_Luc cells; assay: Proliferation assay (resazurin/AlamarBlue), NCI-H2052; format: cell-based; details: Homo sapiens; NCI-H2052, 72 hours
[6] = test system: SF268-MCAT_Luc_dox-i-shYAPLevy (Clone 13) cells; assay: Proliferation assay (resazurin/AlamarBlue), SF268; format: cell-based; details: Homo sapiens, SF-268; SF268, 72 hours
MKN-45/Ubc-luc cells = assay: Proliferation assay (resazurin/AlamarBlue), MKN-45; format: cell-based; details: Homo sapiens; MKN-45, 72 hours
How it was run: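 MKN-45 cells carrying constitutive Ubc-driven luciferase reporter, treated the day after seeding with eleven 2-fold dilutions (0.1% DMSO) for 72 h at 37 °C. Viability by resazurin, referenced to day-0 plate; GI50 from % growth (100 none, 0 stasis, −100 kill) and residual viability at top concentration.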

[7] = target: TEAD1-GFP in HEK293A cells (Homo sapiens (Human), UniProt P28347); assay: TEAD1 protein abundance flow cytometry assay in HEK293A; format: cell-based; details: HEK293A TEAD1-GFP-CHYSEL-mCherry sensor cells, 24 h, GFP signal by flow cytometry
Chain of TEAD1-GFP in HEK293A cells (P28347 whole entry): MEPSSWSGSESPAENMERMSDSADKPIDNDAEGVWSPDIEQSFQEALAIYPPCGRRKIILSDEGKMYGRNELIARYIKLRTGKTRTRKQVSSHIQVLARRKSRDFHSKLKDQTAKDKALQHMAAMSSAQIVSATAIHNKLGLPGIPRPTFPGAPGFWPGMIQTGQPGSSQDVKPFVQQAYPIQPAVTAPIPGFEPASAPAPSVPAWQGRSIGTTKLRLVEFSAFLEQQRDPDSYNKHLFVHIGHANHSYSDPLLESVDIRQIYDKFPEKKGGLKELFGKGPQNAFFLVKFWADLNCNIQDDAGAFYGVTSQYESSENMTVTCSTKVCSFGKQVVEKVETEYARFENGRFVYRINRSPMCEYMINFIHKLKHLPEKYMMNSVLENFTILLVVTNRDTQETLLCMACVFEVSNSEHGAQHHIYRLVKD
How it was run: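 HEK293A stably expressing bicistronic TEAD1-GFP-CHYSEL-mCherry treated 24 h at 37° C with 10-point 3-fold series from 10 μM (0.1% DMSO), duplicate. Median GFP of 2,500 single cells by flow cytometry, normalized to parental HEK293A (0%) and DMSO (100%); DC50 from concentration-response curves.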

Chain of Avi-humanTEAD4^217-434 / Cy5 labeled humanYAP^60-100 (Q15561 217-434): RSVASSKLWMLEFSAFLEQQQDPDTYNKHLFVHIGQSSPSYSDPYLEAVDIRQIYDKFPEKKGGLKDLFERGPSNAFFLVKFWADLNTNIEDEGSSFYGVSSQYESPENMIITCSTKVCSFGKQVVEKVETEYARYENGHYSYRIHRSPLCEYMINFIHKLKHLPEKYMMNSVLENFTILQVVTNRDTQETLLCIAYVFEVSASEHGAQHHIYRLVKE

SMILES	IC50 [1] [nM]	IC50 [2] [nM]	IC50 [3] [nM]	IC50 [4] [nM]	GI50 [5] [nM]	GI50 (MKN-45/Ubc-luc cells) [nM]	DC50 [7] [nM]	GI50 [6] [nM]
COc1ccc(C(N)=O)c(-c2c(Cl)c(F)cc3c2[C@H](C)[C@@](CN[C@H]2CC[C@H](C(=O)NCCOCCOCCOCCNC(=O)COc4cc(-c5scnc5C)ccc4CNC(=O)[C@@H]4C[C@@H](O)CN4C(=O)[C@@H](NC(=O)C4(F)CC4)C(C)(C)C)CC2)(c2ccccc2)O3)c1F (atropisomer, axis not shown) [Example 40, (2S,4R)-N-(2-((1-((1S,4r)-4-((((2S,3S,4S)-4-(6-carbamoyl-2-fluoro-3-methoxyphenyl)-5-chloro-6-fluoro-3-methyl-2-phenyl-2,3-dihydrobenzofuran-2-yl)methyl)amino)cyclohexyl)-1,15-dioxo-5,8,11-trioxa-2,14-diazahexadecan-16-yl)oxy)-4-(4-methylthiazol-5-yl)benzyl)-1-((S)-2-(1-fluorocyclopropane-1-carboxamido)-3,3-dimethylbutanoyl)-4-hydroxypyrrolidine-2-carboxamide]	4.7	160	47	> 20000	410	> 20000	20	1860
COc1ccc(C(=O)N2CCC(C3CCN(C(=O)[C@H]4CC[C@H](NC[C@]5(c6ccccc6)Oc6cc(F)c(Cl)c(-c7c(C(N)=O)ccc(OC)c7F)c6[C@@H]5C)CC4)CC3)CC2)cc1N1CCC(=O)NC1=O (atropisomer, axis not shown) [Example 10, 2-((2S,3S,4S)-5-chloro-2-((((1r,4S)-4-(1′-(3-(2,4-dioxotetrahydropyrimidin-1(2H)-yl)-4-methoxybenzoyl)-[4,4′-bipiperidine]-1-carbonyl)cyclohexyl)amino)methyl)-6-fluoro-3-methyl-2-phenyl-2,3-dihydrobenzofuran-4-yl)-3-fluoro-4-methoxybenzamide]	2.6	10	0.43	> 20000	38	12500	1	30
COc1ccc(C(N)=O)c(-c2c(Cl)c(F)cc3c2[C@H](C)[C@@](CN[C@H]2CC[C@H](C(=O)N4CCC(CC5CCN(C(=O)COc6ccc(N7CCC(=O)NC7=O)cc6)CC5)CC4)CC2)(c2ccccc2)O3)c1F (atropisomer, axis not shown) [Example 25, 2-((2S,3S,4S)-5-chloro-2-((((1r,4S)-4-(4-((1-(2-(4-(2,4-dioxotetrahydropyrimidin-1(2H)-yl)phenoxy)acetyl)piperidin-4-yl)methyl)piperidine-1-carbonyl)cyclohexyl)amino)methyl)-6-fluoro-3-methyl-2-phenyl-2,3-dihydrobenzofuran-4-yl)-3-fluoro-4-methoxybenzamide]	2.4	3.2	0.54	> 2000	8.5	> 2000	0.5	22
COc1ccc(C(N)=O)c(-c2c(Cl)c(F)cc3c2[C@H](C)[C@@](CN[C@H]2CC[C@H](C(=O)N4CCC(OC5CCN(C(=O)CCC(=O)N[C@H](C(=O)N6C[C@H](O)C[C@H]6C(=O)N[C@@H](C)c6ccc(-c7scnc7C)cc6)C(C)(C)C)CC5)CC4)CC2)(c2ccccc2)O3)c1F (atropisomer, axis not shown) [Example 41, (2S,4R)-1-((S)-2-(4-(4-((1-((1S,4r)-4-((((2S,3S,4S)-4-(6-carbamoyl-2-fluoro-3-methoxyphenyl)-5-chloro-6-fluoro-3-methyl-2-phenyl-2,3-dihydrobenzofuran-2-yl)methyl)amino)cyclohexane-1-carbonyl)piperidin-4-yl)oxy)piperidin-1-yl)-4-oxobutanamido)-3,3-dimethylbutanoyl)-4-hydroxy-N-((S)-1-(4-(4-methylthiazol-5-yl)phenyl)ethyl)pyrrolidine-2-carboxamide]	2.3	79	11	> 2000	270	> 2000	27	310

Compounds with a lower IC50 [1], results first:

IC50 [1] [nM]	IC50 [2] [nM]	IC50 [3] [nM]	IC50 [4] [nM]	GI50 [5] [nM]	GI50 (MKN-45/Ubc-luc cells) [nM]	DC50 [7] [nM]	SMILES	GI50 [6] [nM]
1.4	3.1	0.63	> 2000	11	> 2000	3	COc1ccc(C(N)=O)c(-c2c(Cl)c(F)cc3c2[C@H](C)[C@@](CN[C@H]2CC[C@H](C(=O)N4CCC(OC5CCN(C(=O)COc6ccc(N7CCC(=O)NC7=O)c(C)c6)CC5)CC4)CC2)(c2ccccc2)O3)c1F (atropisomer, axis not shown) [Example 14, 2-((2S,3S,4S)-5-chloro-2-((((1r,4S)-4-(4-((1-(2-(4-(2,4-dioxotetrahydropyrimidin-1(2H)-yl)-3-methylphenoxy)acetyl)piperidin-4-yl)oxy)piperidine-1-carbonyl)cyclohexyl)amino)methyl)-6-fluoro-3-methyl-2-phenyl-2,3-dihydrobenzofuran-4-yl)-3-fluoro-4-methoxybenzamide]	35
1.4	3.9	0.22	> 20000	19	> 20000	0.4	COc1ccc(C(N)=O)c(-c2c(Cl)c(F)cc3c2[C@H](C)[C@@](CN[C@H]2CC[C@H](C(=O)N4CCC(OC5CCN(C(=O)COc6ccc(C)c(N7CCC(=O)NC7=O)c6)CC5)CC4)CC2)(c2ccccc2)O3)c1F (atropisomer, axis not shown) [Example 20, 2-((2S,3S,4S)-5-chloro-2-((((1r,4S)-4-(4-((1-(2-(3-(2,4-dioxotetrahydropyrimidin-1(2H)-yl)-4-methylphenoxy)acetyl)piperidin-4-yl)oxy)piperidine-1-carbonyl)cyclohexyl)amino)methyl)-6-fluoro-3-methyl-2-phenyl-2,3-dihydrobenzofuran-4-yl)-3-fluoro-4-methoxybenzamide]	18
< 1	91	1.4	> 20000	280	> 20000	11	COc1ccc(C(=O)N2CCC(C3CCN(CCNC(=O)[C@H]4CC[C@H](NC[C@]5(c6ccccc6)Oc6cc(F)c(Cl)c(-c7c(C(N)=O)ccc(OC)c7F)c6[C@@H]5C)CC4)CC3)CC2)cc1N1CCC(=O)NC1=O (atropisomer, axis not shown) [Example 11, 2-((2S,3S,4S)-5-chloro-2-((((1r,4S)-4-((2-(1′-(3-(2,4-dioxotetrahydropyrimidin-1(2H)-yl)-4-methoxybenzoyl)-[4,4′-bipiperidin]-1-yl)ethyl)carbamoyl)cyclohexyl)amino)methyl)-6-fluoro-3-methyl-2-phenyl-2,3-dihydrobenzofuran-4-yl)-3-fluoro-4-methoxybenzamide]	51
< 1	17	2.6	> 2000	31	1550	3	COc1ccc(C(N)=O)c(-c2c(Cl)c(F)cc3c2[C@H](C)[C@@](CN[C@H]2CC[C@H](C(=O)N4CCC(CC5CCN(CCn6cccc(CN7CCC(=O)NC7=O)c6=O)CC5)CC4)CC2)(c2ccccc2)O3)c1F (atropisomer, axis not shown) [Example 15, 2-((2S,3S,4S)-5-chloro-2-((((1r,4S)-4-(4-((1-(2-(3-((2,4-dioxotetrahydropyrimidin-1(2H)-yl)methyl)-2-oxopyridin-1(2H)-yl)ethyl)piperidin-4-yl)methyl)piperidine-1-carbonyl)cyclohexyl)amino)methyl)-6-fluoro-3-methyl-2-phenyl-2,3-dihydrobenzofuran-4-yl)-3-fluoro-4-methoxybenzamide]	85
< 1	13	1.4	> 2000	35	> 2000	3	COc1ccc(C(N)=O)c(-c2c(Cl)c(F)cc3c2[C@H](C)[C@@](CN[C@H]2CC[C@H](C(=O)NCCCCCCCNC(=O)COc4ccc(C)c(N5CCC(=O)NC5=O)c4)CC2)(c2ccccc2)O3)c1F (atropisomer, axis not shown) [Example 23, 2-((2S,3S,4S)-5-chloro-2-((((1r,4S)-4-((7-(2-(3-(2,4-dioxotetrahydropyrimidin-1(2H)-yl)-4-methylphenoxy)acetamido)heptyl)carbamoyl)cyclohexyl)amino)methyl)-6-fluoro-3-methyl-2-phenyl-2,3-dihydrobenzofuran-4-yl)-3-fluoro-4-methoxybenzamide]	74
